# According to PubChem BioAssay (NCI):
#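 Five concentrations, 48 hours, 96-well plates. At the TGI there is no net growth.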
# How the values were obtained:
# Assay in all cases: NCI anticancer screen, dose series, 48 h
# [1] = test system: HOP-92 NSCLC
# [2] = test system: IGROV1 ovarian
# [3] = test system: M14 melanoma
# [4] = test system: MCF7 breast
# [5] = test system: NCI-H226 lung
# [6] = test system: OVCAR-3 ovarian
# [7] = test system: PC-3 prostate
# [8] = test system: SF-539 CNS
# [9] = test system: SW-620 colon
# [10] = test system: HCC-2998 colon
Compound,TGI [1] [µM],TGI [2] [µM],TGI [3] [µM],TGI [4] [µM],TGI [5] [µM],TGI [6] [µM],TGI [7] [µM],TGI [8] [µM],TGI [9] [µM],TGI [10] [µM]
CN1CCN2CCN(C)CCN(CC1)CC2,> 100,> 100,> 100,> 100,> 100,> 100,> 100,> 100,> 100,
O=C1CSC2(CC(/C=C/c3ccccc3[N+](=O)[O-])=NN2c2cccc(S(=O)(=O)O)c2)N1c1nc2ccccc2s1 (stereo not drawn),56.7,36.1,60.7,26.4,44.1,,35.4,> 75,> 75,> 75
O=C(O)Cc1ccc(-n2nnc3c(=O)[nH][nH]c(=O)c32)cc1,> 100,,> 100,> 100,,> 100,> 100,,,> 100
COc1ccc(/C=C2\NC(=S)N(CN3CCOCC3)C2=O)cc1,> 100,> 100,> 100,> 100,> 100,> 100,> 100,,> 100,
C[C@H](OC(=O)/C=C/c1ccc(O)c(O)c1)[C@H](C)OC(=O)/C=C/c1ccc(O)c(O)c1,38.2,31.5,23.5,70.7,,14.8,> 100,> 100,17.8,33.4
O=[N+]([O-])c1cnccc1-n1nnc2ccccc21,> 71.1,47.6,,36.5,49.8,> 31.6,,45.8,52,51.6
CN1CCN(C(=S)N(C(=O)c2ccc(Cl)cc2)C2CCCCC2)CC1,> 100,> 100,> 100,> 100,> 100,> 100,,,> 100,> 100
CCCCCCCCC[C@@H]1C[C@H](O)[C@H](Cc2ccccc2)N1C(=O)OC(C)(C)C,28.9,33.3,38.4,,,34.6,,37.2,38.4,27.8
CC(=O)Nc1ccc2cc3c(nc2n1)c1cccnc1n3S(=O)(=O)c1ccccc1,> 100,> 100,> 100,> 100,> 100,> 100,> 100,,> 100,> 100
ClC1(Cl)C2CCOC21n1cnc2ccccc21 (stereo not drawn),,> 100,> 100,> 100,> 100,> 100,> 100,> 100,> 100,> 100
C=C(C)[C@H]1C=C[C@@H](OC(C)=O)[C@@]2(COC(C)=O)[C@H](OC(=O)CCC)[C@H]3[C@@H](OC(C)=O)[C@@H](C)C[C@]3(O)C(=O)[C@@](C)(OC(C)=O)[C@H]12,69.8,> 100,> 100,> 100,> 100,,> 100,,> 100,86.5
CCN(CC)C(=O)N1CN(c2ccccc2)C2(CCN(CCCC3(c4ccc(F)cc4)OCCO3)CC2)C1=O,,,> 100,19.9,53.5,31.5,34.9,32,40.4,28.7
COC(=O)Cc1c(-c2c(CC(=O)OC)c3ccccc3n2C2OC(COC3OC(COC(C)=O)C(OC(C)=O)C(OC(C)=O)C3OC(C)=O)C(O)C(O)C2O)[nH]c2ccccc12 (stereo not drawn),> 100,> 100,> 100,> 100,> 100,> 100,> 100,> 100,> 100,
COc1cc(C2C(Cl)C(=O)N2NC(=O)c2ccccc2O)cc(OC)c1OC (stereo not drawn),> 10,> 10,> 10,7.36,> 10,> 10,> 10,> 10,> 10,
CNC(=S)c1nnsc1N,,> 100,> 100,> 100,> 100,> 100,> 100,> 100,> 100,> 100
c1ccc2c(CCNC3=NCCO3)cccc2c1,,> 10,> 10,> 10,> 10,> 10,> 10,> 10,> 10,> 10
O=C(CCCN1CCC(Nc2ccc(F)cc2)(c2nnnn2C2CCCCC2)CC1)c1ccc(F)cc1,,12.3,32.4,33.1,36,31.8,51.8,30.5,> 100,> 100
O=C(CN1CCOCC1)c1ccc2c(c1)oc(=O)n2CCN1CCCCC1,,> 100,> 100,> 100,> 100,> 100,> 100,> 100,> 100,
CC(=O)Oc1ccc(C2SCc3nc4ccccc4n32)cc1 (stereo not drawn),> 100,> 100,> 100,> 100,,> 100,> 100,> 100,> 100,69
CC(C)N=C(NC#N)NS(=O)(=O)c1cnccc1NC1CCCCCCC1,,> 100,> 100,> 100,> 100,> 100,> 100,,> 100,> 100
COC1=C2C[C@](OC)(C#CC=CC#CC2O)CC1(C)C (stereo partly drawn),,63.2,,> 100,> 100,> 100,> 100,> 100,> 100,> 100
C[C@H](N)C(=O)Nc1ccc(-c2nc3ccccc3s2)cc1Cl,> 100,> 100,19,,11.2,19.2,27.3,,29.4,17.9
COc1ccc(-c2nc3ccccc3c(=O)[nH]2)cc1OC,,81.5,> 100,> 100,55.8,> 100,> 100,80.5,> 100,> 100
